Source: patent US20200179312A1, “ANALOGUES OF CYSTEAMINE AS THERAPEUTIC AGENTS FOR CYSTIC FIBROSIS” (I.E.R.F.C. EUROPEAN INSTITUTE FOR CYSTIC FIBROSIS RESEARCH, priority 2018, published 2020)

How the values were obtained:
TG2 = target: T1, TG2 (Homo sapiens, UniProt P21980); experiment: Inhibition of the PDI activity of TG2; format: biochemical
T1 sequence (P21980 1-687): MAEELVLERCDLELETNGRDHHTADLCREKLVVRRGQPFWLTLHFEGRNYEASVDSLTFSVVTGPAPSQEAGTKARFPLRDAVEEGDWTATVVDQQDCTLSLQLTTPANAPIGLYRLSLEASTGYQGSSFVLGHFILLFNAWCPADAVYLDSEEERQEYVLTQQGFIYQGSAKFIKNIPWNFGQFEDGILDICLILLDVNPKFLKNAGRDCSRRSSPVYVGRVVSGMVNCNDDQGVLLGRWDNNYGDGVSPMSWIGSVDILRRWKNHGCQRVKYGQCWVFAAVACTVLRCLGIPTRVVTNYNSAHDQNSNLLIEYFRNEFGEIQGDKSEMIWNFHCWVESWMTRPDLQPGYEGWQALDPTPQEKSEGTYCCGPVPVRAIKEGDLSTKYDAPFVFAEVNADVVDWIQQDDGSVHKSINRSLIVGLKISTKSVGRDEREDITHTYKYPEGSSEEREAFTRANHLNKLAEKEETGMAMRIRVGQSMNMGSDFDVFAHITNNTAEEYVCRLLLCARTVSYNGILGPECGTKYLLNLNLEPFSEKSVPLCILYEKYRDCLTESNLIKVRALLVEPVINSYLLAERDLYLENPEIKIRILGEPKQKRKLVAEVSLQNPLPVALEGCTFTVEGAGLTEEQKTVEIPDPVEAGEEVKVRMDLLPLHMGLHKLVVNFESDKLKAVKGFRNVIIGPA

CFTR = target: T2, CFTR (Mus musculus, UniProt P26361, DEL508-508); experiment: Immunoblot of CFTR protein levels in tissues of CftrF508del mice; format: in vivo; details: i.p. 5 d, then 20 d of wash out, lung and small intestinal tissue
T2 construct: the Ussing chamber experiments (on small intestinal tissues); from tissue; host or cells: small intestine (Ussing chamber); lung and small intestine homogenates (immunoblot) of CftrF508del mice
Excerpt: (§1) CF mice homozygous for the delF508-CFTR mutation (abbreviated CftrF508del) in the 129/FVB outbred background (CftrtmlEUR, F508del, FVB/129) were obtained from Erasmus Medical Center Rotterdam, The Netherlands (CF coordinated action program EU FP6 LSHM-CT-2005-018932). These studies and procedures were approved by the local Ethics Committee for Animal Welfare (IACUC No 713). Young adult CF mice and their wild-type (wt) littermates were housed in static isolator cages at the animal care specific pathogen-free facility of Charles River (Calco, Italy). CftrF508del mice were treated with daily intraperitoneal injections of cysteamine (100 μl of 0.05 M in PBS) (Sigma Aldrich, M9768) or IE1 (100 μl of 0.075-0.05-0.025-0.0125 M, in PBS) for 5 d or with cysteamine (5 d) or IE1 different concentrations followed by 10 d or 20 d of PBS alone (n=5 mice per group) (19,20).
The proteins of cell lines lysates or lung or small intestine homogenates, obtained from treated and untreated cells or mice, were quantified by a Bio-Rad protein assay to ensure equal protein loading before immunoblot analysis. Fifty micrograms of proteins were loaded in each lane. […]

TNF alpha, MIP-2 = experiment: ELISA of inflammatory cytokines in tissues of CftrF508del mice; format: in vivo; details: intestinal and lung tissues
Excerpt: as §1
ELISA. ELISA was performed on tissue samples using standard ELISA kits (R&D Systems) for TNF-α, Mip2a. According to the manufacturer's instructions, samples were read in triplicate at 450 nm in a microplate Reader (Bio-Rad, Milan, Italy) using Microplate Manager 5.2.1 software.
Values were normalized to protein concentration evaluated by Bradford analysis.

F508delCFTR = F508delCFTR (Homo sapiens, UniProt P13569, DEL508-508); experiment: SPQ assay in primary nasal cells collected by nasal brushing from CF patients; format: cell-based; set-up: Freshly isolated brushed nasal epithelial cells were collected by nasal brushing; endogenous in cells; host or cells: primary nasal epithelial cells from F508del-homozygous CF patients
Experimental: The compounds of formula I have marked effects on CFTR function. A representative number of compounds of formula I (Compounds IE1-IE4; Table I) were tested in comparison to cysteamine and amifostine through SPQ assay in F508delCFTR homozygous bronchial epithelial cell lines (CFBE41o-) transfected with F508delCFTR (FIG. 1) and in ex vivo in nasal cells collected by nasal brushing from CF patients (FIGS. 2A and B). Freshly isolated brushed nasal epithelial cells were collected by nasal brushing, as previously described (21, 21) from 10 F508del-CFTR homozygous CF patients and from 5 non-CF healthy volunteers recruited from staff at the same time points. Both patients and healthy volunteers gave written informed consent. […] Brushes with cells were immediately transferred into RPMI 1640 medium (Invitrogen) containing 1% penicillin-streptomycin (Lonza, 17-602E), in 15-ml sterilized tubes. The tubes were incubated at 37° C. for 2 h on a thermo shaker, to remove all cell from brushes; the brushes were then removed and the cells centrifuged at 800×g (2000 rpm) for 20 min. The supernatant fractions were discarded and the cell pellet treated with […] of trypsin-versene (EDTA) solution (Lonza, 17-161) for 4 min at 37° C. to disaggregate possible cell clusters. Trypsin solution was inactivated by adding 3 ml of serum-free Bronchial Epithelial cell Growth Medium BEGM (Clonetics, Lonza, CC3170). After centrifugation at 800×g (2000 rpm) for 10 min, cells were placed in […] 25 flasks (Sarstedt Ltd, CS300) with 10 ml of BEGM medium. Nonspecific epithelial cells were removed during the daily cell washing and medium changes.

Chain of F508delCFTR (P13569 with tags, fused parts or gaps DEL508-508): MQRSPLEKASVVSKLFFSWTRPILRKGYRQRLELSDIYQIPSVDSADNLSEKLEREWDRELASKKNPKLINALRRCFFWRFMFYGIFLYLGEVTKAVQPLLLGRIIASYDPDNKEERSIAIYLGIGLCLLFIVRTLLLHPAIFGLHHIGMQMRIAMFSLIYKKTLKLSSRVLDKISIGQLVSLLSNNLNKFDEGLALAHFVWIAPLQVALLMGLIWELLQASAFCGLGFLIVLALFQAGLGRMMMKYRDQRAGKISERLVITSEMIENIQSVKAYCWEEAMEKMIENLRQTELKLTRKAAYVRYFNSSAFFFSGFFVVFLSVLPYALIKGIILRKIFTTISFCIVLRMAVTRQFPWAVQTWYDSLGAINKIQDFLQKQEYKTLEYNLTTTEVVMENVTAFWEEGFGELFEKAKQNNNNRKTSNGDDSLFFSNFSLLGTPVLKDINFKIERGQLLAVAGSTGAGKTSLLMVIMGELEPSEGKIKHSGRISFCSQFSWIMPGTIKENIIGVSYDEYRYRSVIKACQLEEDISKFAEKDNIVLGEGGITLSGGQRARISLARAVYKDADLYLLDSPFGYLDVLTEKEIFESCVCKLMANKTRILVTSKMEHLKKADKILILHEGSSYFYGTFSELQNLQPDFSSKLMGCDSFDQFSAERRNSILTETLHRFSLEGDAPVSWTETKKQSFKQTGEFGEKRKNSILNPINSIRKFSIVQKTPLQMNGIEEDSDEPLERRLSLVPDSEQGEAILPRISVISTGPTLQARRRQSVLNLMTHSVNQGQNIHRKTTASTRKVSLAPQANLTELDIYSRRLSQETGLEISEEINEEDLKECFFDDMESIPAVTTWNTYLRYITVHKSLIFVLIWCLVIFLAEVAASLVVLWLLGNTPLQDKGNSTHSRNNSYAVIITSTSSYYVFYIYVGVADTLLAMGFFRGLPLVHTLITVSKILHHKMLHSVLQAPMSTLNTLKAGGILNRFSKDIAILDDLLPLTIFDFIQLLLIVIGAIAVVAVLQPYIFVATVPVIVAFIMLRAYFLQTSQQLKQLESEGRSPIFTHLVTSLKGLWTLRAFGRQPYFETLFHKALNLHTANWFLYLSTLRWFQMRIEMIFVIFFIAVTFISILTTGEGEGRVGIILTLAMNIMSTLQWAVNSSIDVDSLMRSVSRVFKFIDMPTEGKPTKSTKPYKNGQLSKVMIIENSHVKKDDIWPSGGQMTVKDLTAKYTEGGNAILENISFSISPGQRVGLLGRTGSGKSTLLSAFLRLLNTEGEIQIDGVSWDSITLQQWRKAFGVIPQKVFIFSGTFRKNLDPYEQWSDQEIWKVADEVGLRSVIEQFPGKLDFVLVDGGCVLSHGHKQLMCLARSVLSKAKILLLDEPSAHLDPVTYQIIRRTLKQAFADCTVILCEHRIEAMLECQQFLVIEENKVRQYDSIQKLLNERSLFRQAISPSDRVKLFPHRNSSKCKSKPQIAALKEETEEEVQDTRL
T2 sequence (P26361 with tags, fused parts or gaps DEL508-508): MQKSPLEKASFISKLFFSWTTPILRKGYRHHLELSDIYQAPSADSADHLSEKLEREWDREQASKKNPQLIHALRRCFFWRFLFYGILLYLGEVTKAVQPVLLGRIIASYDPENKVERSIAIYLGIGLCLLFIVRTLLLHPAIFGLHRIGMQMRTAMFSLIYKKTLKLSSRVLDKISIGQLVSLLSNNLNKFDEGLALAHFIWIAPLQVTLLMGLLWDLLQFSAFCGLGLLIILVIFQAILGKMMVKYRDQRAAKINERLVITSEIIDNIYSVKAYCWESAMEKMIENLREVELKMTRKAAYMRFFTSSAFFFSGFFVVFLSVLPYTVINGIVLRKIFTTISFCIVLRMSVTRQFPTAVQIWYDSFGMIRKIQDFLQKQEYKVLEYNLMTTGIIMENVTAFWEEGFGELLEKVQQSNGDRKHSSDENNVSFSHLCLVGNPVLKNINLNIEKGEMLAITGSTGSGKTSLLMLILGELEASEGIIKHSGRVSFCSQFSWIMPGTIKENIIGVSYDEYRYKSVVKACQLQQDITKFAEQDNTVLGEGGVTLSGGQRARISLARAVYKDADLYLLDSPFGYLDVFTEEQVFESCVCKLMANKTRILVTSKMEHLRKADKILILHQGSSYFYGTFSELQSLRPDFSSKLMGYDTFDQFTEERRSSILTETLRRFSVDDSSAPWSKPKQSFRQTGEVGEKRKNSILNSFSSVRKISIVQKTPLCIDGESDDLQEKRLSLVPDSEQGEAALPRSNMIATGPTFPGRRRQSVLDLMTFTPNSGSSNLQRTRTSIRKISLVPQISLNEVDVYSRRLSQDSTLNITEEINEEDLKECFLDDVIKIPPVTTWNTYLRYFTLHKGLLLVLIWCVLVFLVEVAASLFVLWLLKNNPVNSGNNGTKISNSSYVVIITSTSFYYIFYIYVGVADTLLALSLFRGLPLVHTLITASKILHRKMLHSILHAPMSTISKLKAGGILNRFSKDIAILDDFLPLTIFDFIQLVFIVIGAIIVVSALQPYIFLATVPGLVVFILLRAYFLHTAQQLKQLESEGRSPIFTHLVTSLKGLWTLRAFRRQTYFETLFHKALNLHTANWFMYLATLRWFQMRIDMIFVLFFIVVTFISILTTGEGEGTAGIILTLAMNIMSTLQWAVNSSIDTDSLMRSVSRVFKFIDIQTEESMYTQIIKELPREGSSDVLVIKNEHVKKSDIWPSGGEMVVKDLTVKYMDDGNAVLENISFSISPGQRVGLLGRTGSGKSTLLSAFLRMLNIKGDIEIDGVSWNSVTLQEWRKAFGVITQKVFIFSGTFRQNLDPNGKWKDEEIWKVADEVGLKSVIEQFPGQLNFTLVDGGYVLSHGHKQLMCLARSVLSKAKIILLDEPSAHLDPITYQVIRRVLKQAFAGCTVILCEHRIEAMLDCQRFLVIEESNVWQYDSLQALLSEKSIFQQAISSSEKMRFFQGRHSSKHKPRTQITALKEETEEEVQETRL

NCCCS [IE1, 3-aminopropane-1-thiol]
Ability to inhibit the PDI activity of TG2 (TG2): confirmed
CFTR protein levels after wash out (immunoblot) (CFTR): sustaining the protein well beyond 20 d of wash out
MIP-2 (TNF alpha, MIP-2): decrease principal inflammatory cytokines
TNF alpha (TNF alpha, MIP-2): decrease principal inflammatory cytokines
CFTR function after wash out with EGCG added (F508delCFTR; 48 h after wash out, epigallocatechin gallate added, nasal primary cells): effect is preserved
CFTR function after wash out (F508delCFTR; 48 h after wash out, nasal primary cells): loses its efficacy
Efficacy on CFTR function compared with VX-809 (F508delCFTR; VX-809 3 μM, FIG. 2A): more efficacious than VX-809
CFTR function after wash out (F508delCFTR; up to 24 h after wash out, nasal cells): able to maintain CFTR function
